Results reported in patent publication US9249087B2, “HDAC inhibitors and therapeutic methods using the same” (THE BOARD OF TRUSTEES OF THE UNIVERSITY OF ILLINOIS, priority 2011, dated 2016).

Experiments:
[1] = system: traumatic brain injury in rats; conditions: following traumatic brain injury in rats; cited from earlier work
primary cortical neurons = experiment: HCA oxidative stress neuroprotection assay (MTT); type: cell-based
From the text: It has been shown that HDAC6 inhibition protects against neuronal degeneration and stimulates neurite outgrowth in dorsal root ganglion neurons, therefore indicating methods of treating CNS diseases. Accordingly, present HDACI compounds were examined in a model of oxidative stress induced by homocysteic acid (HCA). This model leads to depletion of glutathione, the major intracellular antioxidant. HDAC6 inhibition rescues neuronal death in this model, possibly by causing hyperacetylation of peroxiredoxins. […] (A. P. Kozikowski et al., J. Med. Chem. 2007, 50, 3054-61.)
FIGS. 1 and 2 contain neuroprotection bar graphs of the HCA oxidative stress test assay. Neurons were treated with TSA (FIG. 1) or a present HDACI compound (FIG. 2), alone or with the addition of HCA (homocysteic acid).
The data summarized in FIGS. 1 and 2 was obtained according to the following neuroprotective assay. Primary cortical neuron cultures were obtained from the cerebral cortex of fetal Sprague-Dawley rats (embryonic day 17). All experiments were initiated 24 hours after plating. Under these conditions, the cells are not susceptible to glutamate-mediated excitotoxicity. […] Viability was assessed after 24 hours by the MTT assay (3-(4,5-dimethylthiazol-2-yl)-2,5-diphenyltetrazolium bromide) method.

HDAC5 = HDAC5 (Homo sapiens (Human), UniProt Q9UQL6); experiment: HDAC5 inhibition assay (Acetyl-Lys(trifluoroacetyl)-AMC substrate); type: biochemical; conditions: average of two experiments; read-out: HDAC Isoform IC50 (μM) 5
HDAC2 = HDAC2 (Homo sapiens (Human), UniProt Q92769); experiment: HDAC2 fluorogenic peptide deacetylation inhibition assay; type: biochemical; conditions: average of two experiments; read-out: HDAC Isoform IC50 (μM) 2
mice with colitis = experiment: colitis in mice; type: in vivo; conditions: treatment begun once colitis had developed
From the text: Studies of autoimmunity also are undertaken. In this case, interruption of existing disease is especially important and HDAC6 targeting can be efficacious without any requirement for additional therapy (in contrast to a need for brief low-dose RPM in the very aggressive, fully MHC-mismatched transplant models). […] These studies are extended by assessing whether deletion of HDAC6 in Tregs (Foxp3/Cre) vs. T cells (CD4=Cre) vs. DC (CD11c-Cre) differentially affect the development and severity of colitis. Similarly, control of colitis is assessed by inducing HDAC6 deletion at varying intervals after the onset of colitis with tamoxifen-regulated Cre.

HDAC7 = HDAC7 (Homo sapiens (Human), UniProt Q8WUI4); conditions: read-out: HDAC Isoform IC50 (μM) 7
HDAC7, sequence (Q8WUI4 whole entry, canonical isoform): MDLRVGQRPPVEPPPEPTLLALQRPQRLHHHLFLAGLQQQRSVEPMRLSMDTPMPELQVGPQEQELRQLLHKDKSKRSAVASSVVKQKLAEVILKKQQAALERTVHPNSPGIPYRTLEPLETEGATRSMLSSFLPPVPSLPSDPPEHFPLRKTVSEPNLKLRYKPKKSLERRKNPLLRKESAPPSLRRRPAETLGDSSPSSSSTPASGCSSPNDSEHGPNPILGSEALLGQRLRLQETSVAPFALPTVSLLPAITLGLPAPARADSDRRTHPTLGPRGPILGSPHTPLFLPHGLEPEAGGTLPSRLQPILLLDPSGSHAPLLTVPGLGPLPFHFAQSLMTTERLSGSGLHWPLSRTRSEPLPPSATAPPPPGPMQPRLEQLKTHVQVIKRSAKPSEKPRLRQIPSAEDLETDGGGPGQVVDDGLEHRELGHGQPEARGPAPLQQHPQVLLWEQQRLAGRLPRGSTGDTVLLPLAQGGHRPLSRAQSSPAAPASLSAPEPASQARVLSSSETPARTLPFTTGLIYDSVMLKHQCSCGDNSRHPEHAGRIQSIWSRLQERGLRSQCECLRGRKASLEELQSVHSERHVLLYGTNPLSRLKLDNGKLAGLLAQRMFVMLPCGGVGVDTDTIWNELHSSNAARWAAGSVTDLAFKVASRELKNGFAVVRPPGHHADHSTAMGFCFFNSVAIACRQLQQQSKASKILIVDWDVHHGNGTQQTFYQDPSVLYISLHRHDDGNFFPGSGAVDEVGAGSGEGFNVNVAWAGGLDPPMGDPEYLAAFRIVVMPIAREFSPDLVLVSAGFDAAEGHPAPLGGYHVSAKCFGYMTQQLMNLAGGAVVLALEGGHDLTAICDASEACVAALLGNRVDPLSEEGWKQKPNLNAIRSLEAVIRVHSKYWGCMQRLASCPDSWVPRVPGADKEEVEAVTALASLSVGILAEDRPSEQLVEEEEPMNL

HDAC5, sequence (Q9UQL6 whole entry, canonical isoform): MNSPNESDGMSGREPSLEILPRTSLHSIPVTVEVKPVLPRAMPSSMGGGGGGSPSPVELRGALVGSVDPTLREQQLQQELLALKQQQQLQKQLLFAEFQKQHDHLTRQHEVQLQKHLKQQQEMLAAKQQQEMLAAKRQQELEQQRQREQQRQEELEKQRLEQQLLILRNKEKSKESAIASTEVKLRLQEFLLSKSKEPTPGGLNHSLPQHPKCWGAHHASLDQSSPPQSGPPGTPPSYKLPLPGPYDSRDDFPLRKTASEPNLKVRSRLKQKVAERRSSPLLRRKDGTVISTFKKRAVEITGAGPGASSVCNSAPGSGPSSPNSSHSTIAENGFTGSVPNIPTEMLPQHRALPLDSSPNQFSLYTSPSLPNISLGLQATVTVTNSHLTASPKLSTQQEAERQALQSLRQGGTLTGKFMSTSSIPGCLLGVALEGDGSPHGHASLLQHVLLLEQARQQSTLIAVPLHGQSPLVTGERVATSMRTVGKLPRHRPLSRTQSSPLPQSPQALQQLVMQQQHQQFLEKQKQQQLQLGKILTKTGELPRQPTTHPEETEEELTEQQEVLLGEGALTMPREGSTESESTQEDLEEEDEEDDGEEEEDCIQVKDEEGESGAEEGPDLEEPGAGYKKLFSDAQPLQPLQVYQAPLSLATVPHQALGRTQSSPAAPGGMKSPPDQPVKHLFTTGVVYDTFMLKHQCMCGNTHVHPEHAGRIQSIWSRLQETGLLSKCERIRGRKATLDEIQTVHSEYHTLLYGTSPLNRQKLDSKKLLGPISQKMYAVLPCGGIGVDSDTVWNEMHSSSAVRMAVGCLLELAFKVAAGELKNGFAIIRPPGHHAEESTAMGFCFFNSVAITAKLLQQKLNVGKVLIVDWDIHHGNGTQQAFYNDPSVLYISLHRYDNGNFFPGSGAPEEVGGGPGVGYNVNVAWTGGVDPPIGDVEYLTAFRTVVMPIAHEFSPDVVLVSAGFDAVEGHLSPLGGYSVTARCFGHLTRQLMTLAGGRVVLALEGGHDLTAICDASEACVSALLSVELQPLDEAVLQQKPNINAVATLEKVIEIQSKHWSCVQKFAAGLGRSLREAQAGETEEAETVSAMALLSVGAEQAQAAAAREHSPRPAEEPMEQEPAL
HDAC2, sequence (Q92769 whole entry, canonical isoform): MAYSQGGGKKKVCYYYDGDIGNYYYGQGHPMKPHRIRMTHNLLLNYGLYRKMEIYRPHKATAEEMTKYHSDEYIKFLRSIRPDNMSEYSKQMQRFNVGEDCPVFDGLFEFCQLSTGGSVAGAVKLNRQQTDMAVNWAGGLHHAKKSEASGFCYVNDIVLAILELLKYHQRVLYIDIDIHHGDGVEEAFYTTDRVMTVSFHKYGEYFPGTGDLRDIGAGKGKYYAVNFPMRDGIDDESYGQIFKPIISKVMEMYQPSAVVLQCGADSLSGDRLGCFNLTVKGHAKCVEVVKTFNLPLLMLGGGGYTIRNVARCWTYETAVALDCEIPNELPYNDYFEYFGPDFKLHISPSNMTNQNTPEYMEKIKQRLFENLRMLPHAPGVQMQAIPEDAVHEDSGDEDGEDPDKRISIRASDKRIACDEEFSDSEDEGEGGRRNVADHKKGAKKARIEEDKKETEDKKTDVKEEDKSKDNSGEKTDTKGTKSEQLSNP

## CN(C)c1ccc(C(=O)NCCCCCNC(=O)CS)cc1 [DMA-PB, 4-dimethylamino-N-[5-(2-mercaptoacetylamino)pentyl]benzamide]
[1]
  histone H3 acetylation: increase histone H3 acetylation
  microglia inflammatory response: reduce microglia inflammatory response

## CC(/C=C/C(=O)NO)=C\[C@@H](C)C(=O)c1ccc(N(C)C)cc1 [TSA, Trichostatin A]
Primary cortical neurons; 0.5 μM, HCA 5 mM, viability by MTT after 24 hours
  neuroprotection in HCA-induced neurodegeneration assay: moderately neuroprotective
Primary cortical neurons; higher concentrations than 0.5 μM
  neurotoxicity to primary cortical neurons: dose-dependant neurotoxicity

## O=C(CCCCCCC(=O)Nc1ccc([C@H]2O[C@@H](CSc3nc(-c4ccccc4)c(-c4ccccc4)o3)C[C@@H](c3ccc(CO)cc3)O2)cc1)NO [Tubacin]
HDAC5
  IC50: 3.35 µM
HDAC2
  IC50: 6.27 µM
Mice with colitis
  rescue of mice with established colitis: able to rescue mice
HDAC7
  IC50: 9.7 µM
